Experimental data published in patent publication US6355799B1, “Substituted benzene compounds, process for their preparation, and herbicidal and defoliant compositions containing them” (ISK Americas Incorporated, priority 1997, dated 2002).

Assays:
Type in all cases: in vivo
[1] = tested on: redroot pigweed (Amaranthus retroflexus, AMARE); assay: Pre-emerge test, greenhouse herbicide activity screening; details: rating scale 0-100, 14 days after application
Procedure, shortened: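 Sandy loam pots; pre-emerge: sown 1 d pre-spray, surface-watered after, then bottom-watered. Post-emerge: sown 8–21 d before, 2–3 leaf stage, + 0.25% v/v NIS, bottom-watered. Acetone, 187 l/ha track spray, 15–1000 g ai/ha. 0–100 injury score, day 14.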

[2] = tested on: barnyardgrass (Echinochloa crus-galli, ECHCG); assay: as above; details: rating scale 0-100, 14 days after application
Procedure, shortened: (§1)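 Visual ratings on a 0-100 scale (0 no damage, 100 all plants dead) were taken at 14 days after treatment. Rates of 15-1000 g ai/ha in acetone, 187 l/ha, were sprayed onto soil one day after planting (pre-emerge) or onto 2-3 leaf plants with 0.25% v/v surfactant (post-emerge).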

[3] = tested on: velvetleaf (Abutilon theophrasti, ABUTH); assay: as above; details: rating scale 0-100, 14 days after application
Procedure, shortened: as §1

[4] = tested on: ivyleaf morningglory (Ipomoea hederacea, IPOHE); assay: as above; details: rating scale 0-100, 14 days after application
Procedure, shortened: as §1

[5] = tested on: johnsongrass (Sorghum halepense, SORHA); assay: as above; details: rating scale 0-100, 14 days after application
Procedure, shortened: as §1

[6] = tested on: large crabgrass (Digitaria sanguinalis, DIGSA); assay: as above; details: rating scale 0-100, 14 days after application
Procedure, shortened: as §1

[7] = tested on: sicklepod (Cassia obtusifolia, CASOB); assay: as above; details: rating scale 0-100, 14 days after application
Procedure, shortened: as §1

[8] = tested on: lambsquarters (Chenopodium album, CHEAL); assay: as above; details: rating scale 0-100, 14 days after application
Procedure, shortened: as §1

[9] = tested on: green foxtail (Setaria viridis, SETVI); assay: as above; details: rating scale 0-100, 14 days after application
Procedure, shortened: as §1

[10] = tested on: barnyardgrass (Echinochloa crus-galli, ECHCG); assay: Post-emerge test, greenhouse herbicide activity screening; details: rating scale 0-100 (0 no damage, 100 complete death), 14 days after application
Procedure, shortened: (§2)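 Compounds in acetone were track-sprayed at 15-1000 g ai/ha (187 l/ha) on sandy loam pots: pre-emerge one day after seeding, post-emerge at 2-3 leaf stage with 0.25% v/v non-ionic surfactant. Phytotoxicity was rated 14 days later on a 0 (no damage) to 100 (complete death) scale.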

[11] = tested on: velvetleaf (Abutilon theophrasti, ABUTH); assay: as above; details: rating scale 0-100 (0 no damage, 100 complete death), 14 days after application
Procedure, shortened: as §2

[12] = tested on: redroot pigweed (Amaranthus retroflexus, AMARE); assay: as above; details: rating scale 0-100 (0 no damage, 100 complete death), 14 days after application
Procedure, shortened: as §2

[13] = tested on: ivyleaf morningglory (Ipomoea hederacea, IPOHE); assay: as above; details: rating scale 0-100 (0 no damage, 100 complete death), 14 days after application
Procedure, shortened: as §2

[14] = tested on: johnsongrass (Sorghum halepense, SORHA); assay: as above; details: rating scale 0-100 (0 no damage, 100 complete death), 14 days after application
Procedure, shortened: as §2

[15] = tested on: large crabgrass (Digitaria sanguinalis, DIGSA); assay: as above; details: rating scale 0-100 (0 no damage, 100 complete death), 14 days after application
Procedure, shortened: as §2

[16] = tested on: sicklepod (Cassia obtusifolia, CASOB); assay: as above; details: rating scale 0-100 (0 no damage, 100 complete death), 14 days after application
Procedure, shortened: as §2

[17] = tested on: lambsquarters (Chenopodium album, CHEAL); assay: as above; details: rating scale 0-100 (0 no damage, 100 complete death), 14 days after application
Procedure, shortened: as §2

[18] = tested on: green foxtail (Setaria viridis, SETVI); assay: as above; details: rating scale 0-100 (0 no damage, 100 complete death), 14 days after application
Procedure, shortened: as §2

[19] = tested on: upland rice (Oryza sp., var. Tebonnet, RICE); assay: Post-emerge test, crop safety; details: rating scale 0-100 (0 no damage, 100 complete death), 14 days after application
Procedure, shortened: as §1

[20] = tested on: field corn (Zea mays L., var. Dekalb 535, CORN); assay: Post-emerge test, crop safety; details: rating scale 0-100 (0 no damage, 100 complete death), 14 days after application
Procedure, shortened: as §1

[21] = tested on: upland rice (Oryza sp., var. Tebonnet, RICE); assay: Pre-emerge test, crop safety; details: rating scale 0-100, 14 days after application
Procedure, shortened: (§3)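 Applied at 15–1000 g ai/ha from acetone in 187 l/ha spray volume. Post-emergence applications included 0.25% v/v non-ionic surfactant and reached plants sown 8–21 days before. Pre-emergence applications were incorporated by surface watering. Efficacy or crop damage was rated on a 0–100 scale after 14 days.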

[22] = tested on: field corn (Zea mays L., var. Dekalb 535, CORN); assay: Pre-emerge test, crop safety; details: rating scale 0-100, 14 days after application
Procedure, shortened: as §3

COc1c(Cl)cc(F)c(-n2c(=O)cc(C(F)(F)F)n(C)c2=O)c1CC(Cl)C(=O)OCC(Br)CBr (single isomer, unassigned) [14-31]
Pre-emerge herbicidal activity, phytotoxicity rating AMARE ([1]; 63 g ai/ha): 70 | Pre-emerge herbicidal activity, phytotoxicity rating AMARE ([1]; 250 g ai/ha): 100 | Pre-emerge herbicidal activity, phytotoxicity rating ECHCG ([2]; 63 g ai/ha): 0 | Pre-emerge herbicidal activity, phytotoxicity rating ECHCG ([2]; 250 g ai/ha): 0 | Pre-emerge herbicidal activity, phytotoxicity rating ABUTH ([3]; 63 g ai/ha): 0 | Pre-emerge herbicidal activity, phytotoxicity rating ABUTH ([3]; 250 g ai/ha): 70 | Pre-emerge herbicidal activity, phytotoxicity rating IPOHE ([4]; 63 g ai/ha): 0 | Pre-emerge herbicidal activity, phytotoxicity rating IPOHE ([4]; 250 g ai/ha): 50 | Pre-emerge herbicidal activity, phytotoxicity rating SORHA ([5]; 63 g ai/ha): 0 | Pre-emerge herbicidal activity, phytotoxicity rating SORHA ([5]; 250 g ai/ha): 0 | Pre-emerge herbicidal activity, phytotoxicity rating DIGSA ([6]; 63 g ai/ha): 0 | Pre-emerge herbicidal activity, phytotoxicity rating DIGSA ([6]; 250 g ai/ha): 90 | Pre-emerge herbicidal activity, phytotoxicity rating CASOB ([7]; 63 g ai/ha): 0 | Pre-emerge herbicidal activity, phytotoxicity rating CASOB ([7]; 250 g ai/ha): 0 | Pre-emerge herbicidal activity, phytotoxicity rating CHEAL ([8]; 63 g ai/ha): 40 | Pre-emerge herbicidal activity, phytotoxicity rating CHEAL ([8]; 250 g ai/ha): 50 | Pre-emerge herbicidal activity, phytotoxicity rating SETVI ([9]; 63 g ai/ha): 0 | Pre-emerge herbicidal activity, phytotoxicity rating SETVI ([9]; 250 g ai/ha): 0 | Post-emerge Herbicidal Activity, phytotoxicity rating ECHCG ([10]; Rate 63 g ai/ha): 100 | Post-emerge Herbicidal Activity, phytotoxicity rating ECHCG ([10]; Rate 250 g ai/ha): 100 | Post-emerge Herbicidal Activity, phytotoxicity rating ABUTH ([11]; Rate 63 g ai/ha): 90 | Post-emerge Herbicidal Activity, phytotoxicity rating ABUTH ([11]; Rate 250 g ai/ha): 100 | Post-emerge Herbicidal Activity, phytotoxicity rating AMARE ([12]; Rate 63 g ai/ha): 90 | Post-emerge Herbicidal Activity, phytotoxicity rating AMARE ([12]; Rate 250 g ai/ha): 100 | Post-emerge Herbicidal Activity, phytotoxicity rating IPOHE ([13]; Rate 63 g ai/ha): 10 | Post-emerge Herbicidal Activity, phytotoxicity rating IPOHE ([13]; Rate 250 g ai/ha): 70 | Post-emerge Herbicidal Activity, phytotoxicity rating SORHA ([14]; Rate 63 g ai/ha): 0 | Post-emerge Herbicidal Activity, phytotoxicity rating SORHA ([14]; Rate 250 g ai/ha): 20 | Post-emerge Herbicidal Activity, phytotoxicity rating DIGSA ([15]; Rate 63 g ai/ha): 95 | Post-emerge Herbicidal Activity, phytotoxicity rating DIGSA ([15]; Rate 250 g ai/ha): 100 | Post-emerge Herbicidal Activity, phytotoxicity rating CASOB ([16]; Rate 63 g ai/ha): 50 | Post-emerge Herbicidal Activity, phytotoxicity rating CASOB ([16]; Rate 250 g ai/ha): 50 | Post-emerge Herbicidal Activity, phytotoxicity rating CHEAL ([17]; Rate 63 g ai/ha): 70 | Post-emerge Herbicidal Activity, phytotoxicity rating CHEAL ([17]; Rate 250 g ai/ha): 90 | Post-emerge Herbicidal Activity, phytotoxicity rating SETVI ([18]; Rate 63 g ai/ha): 0 | Post-emerge Herbicidal Activity, phytotoxicity rating SETVI ([18]; Rate 250 g ai/ha): 50 | Post-emerge phytotoxicity rating RICE (crop damage) ([19]; Rate 63 g ai/ha): 0 | Post-emerge phytotoxicity rating RICE (crop damage) ([19]; Rate 250 g ai/ha): 0 | Post-emerge phytotoxicity rating CORN (crop damage) ([20]; Rate 63 g ai/ha): 10 | Post-emerge phytotoxicity rating CORN (crop damage) ([20]; Rate 250 g ai/ha): 50 | Pre-emerge phytotoxicity rating, crop damage RICE ([21]; 63 g ai/ha): 0 | Pre-emerge phytotoxicity rating, crop damage RICE ([21]; 250 g ai/ha): 0 | Pre-emerge phytotoxicity rating, crop damage CORN ([22]; 63 g ai/ha): 0 | Pre-emerge phytotoxicity rating, crop damage CORN ([22]; 250 g ai/ha): 30
